Assays:
Test in all cases: relative viability (nuclei count vs DMSO), 5 days (fraction); higher = more cells survive
NCI-H1793 = test system: NCI-H1793
How it was run: (§1)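 Lung cancer cell lines in 1536-well plates got either a single drug or a fixed anchor-drug dose together with five library-drug doses (not always all listed) in √10 steps, by pin tool, on the day after seeding. Nuclei were counted after 5 days, and relative viability is the treated-to-vehicle ratio of nuclei counts. Values are medians of duplicate plates.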

NCI-H1437 = test system: NCI-H1437
How it was run: as §1

201T = test system: 201T
How it was run: as §1

LXF-289 = test system: LXF-289
How it was run: as §1

NCI-H647 = test system: NCI-H647
How it was run: as §1

LCLC-103H = test system: LCLC-103H
How it was run: as §1

NCI-H1944 = test system: NCI-H1944
How it was run: as §1

NCI-H1395 = test system: NCI-H1395
How it was run: as §1

NCI-H2087 = test system: NCI-H2087
How it was run: as §1

RERF-LC-KJ = test system: RERF-LC-KJ
How it was run: as §1

NCI-H2228 = test system: NCI-H2228
How it was run: as §1

CAL-12T = test system: CAL-12T
How it was run: as §1

NCI-H1650 = test system: NCI-H1650
How it was run: as §1

NCI-H322M = test system: NCI-H322M
How it was run: as §1

SK-LU-1 = test system: SK-LU-1
How it was run: as §1

NCI-H2405 = test system: NCI-H2405
How it was run: as §1

HCC-827 = test system: HCC-827
How it was run: as §1

LCLC-97TM1 = test system: LCLC-97TM1
How it was run: as §1

NCI-H3122 = test system: NCI-H3122
How it was run: as §1

NCI-H727 = test system: NCI-H727
How it was run: as §1

BEN = test system: BEN
How it was run: as §1

## COc1nc(C)cnc1NS(=O)(=O)c1cccnc1-c1ccc(-c2nnco2)cc1 [Zibotentan] + Cc1cc(Nc2cc(N3CCN(C)CC3)nc(Sc3ccc(NC(=O)C4CC4)cc3)n2)n[nH]1 [Tozasertib] (partner 0.1 µM)
NCI-H1793; first compound 0.08 µM
  relative viability: 0.336
NCI-H1793; first compound 0.253 µM
  relative viability: 0.352
NCI-H1793; first compound 0.8 µM
  relative viability: 0.273
NCI-H1793; first compound 2.53 µM
  relative viability: 0.3
NCI-H1437; first compound 0.08 µM
  relative viability: 0.421
NCI-H1437; first compound 0.253 µM
  relative viability: 0.378
NCI-H1437; first compound 0.8 µM
  relative viability: 0.38
NCI-H1437; first compound 2.53 µM
  relative viability: 0.448
201T; first compound 0.08 µM
  relative viability: 1.07
201T; first compound 0.253 µM
  relative viability: 0.881
201T; first compound 0.8 µM
  relative viability: 0.955
201T; first compound 2.53 µM
  relative viability: 1.04
LXF-289; first compound 0.08 µM
  relative viability: 0.212
LXF-289; first compound 0.253 µM
  relative viability: 0.161
LXF-289; first compound 0.8 µM
  relative viability: 0.227
LXF-289; first compound 2.53 µM
  relative viability: 0.225
NCI-H647; first compound 0.08 µM
  relative viability: 0.307
NCI-H647; first compound 0.253 µM
  relative viability: 0.183
NCI-H647; first compound 0.8 µM
  relative viability: 0.298
NCI-H647; first compound 2.53 µM
  relative viability: 0.262
LCLC-103H; first compound 0.08 µM
  relative viability: 0.451
LCLC-103H; first compound 0.253 µM
  relative viability: 0.509
LCLC-103H; first compound 0.8 µM
  relative viability: 0.412
LCLC-103H; first compound 2.53 µM
  relative viability: 0.478
NCI-H1944; first compound 0.08 µM
  relative viability: 0.252
NCI-H1944; first compound 0.253 µM
  relative viability: 0.236
NCI-H1944; first compound 0.8 µM
  relative viability: 0.242
NCI-H1944; first compound 2.53 µM
  relative viability: 0.271
NCI-H1395; first compound 0.08 µM
  relative viability: 0.74
NCI-H1395; first compound 0.253 µM
  relative viability: 0.762
NCI-H1395; first compound 0.8 µM
  relative viability: 0.733
NCI-H1395; first compound 2.53 µM
  relative viability: 0.794
NCI-H2087; first compound 0.08 µM
  relative viability: 0.249
NCI-H2087; first compound 0.253 µM
  relative viability: 0.268
NCI-H2087; first compound 0.8 µM
  relative viability: 0.249
NCI-H2087; first compound 2.53 µM
  relative viability: 0.238
RERF-LC-KJ; first compound 0.08 µM
  relative viability: 0.479
RERF-LC-KJ; first compound 0.8 µM
  relative viability: 0.562
RERF-LC-KJ; first compound 2.53 µM
  relative viability: 0.493
NCI-H2228; first compound 0.08 µM
  relative viability: 0.266
NCI-H2228; first compound 0.253 µM
  relative viability: 0.239
NCI-H2228; first compound 0.8 µM
  relative viability: 0.212
NCI-H2228; first compound 2.53 µM
  relative viability: 0.258
CAL-12T; first compound 0.08 µM
  relative viability: 0.268
CAL-12T; first compound 0.253 µM
  relative viability: 0.289
CAL-12T; first compound 0.8 µM
  relative viability: 0.351
CAL-12T; first compound 2.53 µM
  relative viability: 0.31
NCI-H1650; first compound 0.08 µM
  relative viability: 0.491
NCI-H1650; first compound 0.8 µM
  relative viability: 0.487
NCI-H1650; first compound 2.53 µM
  relative viability: 0.418
NCI-H322M; first compound 0.08 µM
  relative viability: 0.464
NCI-H322M; first compound 0.253 µM
  relative viability: 0.479
NCI-H322M; first compound 0.8 µM
  relative viability: 0.496
NCI-H322M; first compound 2.53 µM
  relative viability: 0.534
SK-LU-1; first compound 0.08 µM
  relative viability: 0.327
SK-LU-1; first compound 0.253 µM
  relative viability: 0.283
SK-LU-1; first compound 0.8 µM
  relative viability: 0.336
SK-LU-1; first compound 2.53 µM
  relative viability: 0.424
NCI-H2405; first compound 0.08 µM
  relative viability: 0.747
NCI-H2405; first compound 0.253 µM
  relative viability: 0.716
NCI-H2405; first compound 0.8 µM
  relative viability: 0.798
NCI-H2405; first compound 2.53 µM
  relative viability: 0.77
HCC-827; first compound 0.08 µM
  relative viability: 0.438
HCC-827; first compound 0.253 µM
  relative viability: 0.411
HCC-827; first compound 0.8 µM
  relative viability: 0.409
HCC-827; first compound 2.53 µM
  relative viability: 0.371
LCLC-97TM1; first compound 0.08 µM
  relative viability: 0.228
LCLC-97TM1; first compound 0.253 µM
  relative viability: 0.237
LCLC-97TM1; first compound 0.8 µM
  relative viability: 0.21
LCLC-97TM1; first compound 2.53 µM
  relative viability: 0.233
NCI-H3122; first compound 0.08 µM
  relative viability: 0.399
NCI-H3122; first compound 0.8 µM
  relative viability: 0.361
NCI-H3122; first compound 2.53 µM
  relative viability: 0.413
NCI-H727; first compound 0.08 µM
  relative viability: 0.692
NCI-H727; first compound 0.253 µM
  relative viability: 0.624
NCI-H727; first compound 0.8 µM
  relative viability: 0.629
NCI-H727; first compound 2.53 µM
  relative viability: 0.648
BEN; first compound 0.08 µM
  relative viability: 0.542
BEN; first compound 0.253 µM
  relative viability: 0.426
BEN; first compound 0.8 µM
  relative viability: 0.473
BEN; first compound 2.53 µM
  relative viability: 0.642

— the supplement of paper PMC10307832
